Where a name gives a salt, the structure may show the parent alone.
Key:
[1] = system: conA stimulated spleen cells (T lymphocytes) from female Balb/c mice; assay: Assay B: Suppression of Mitogen-Stimulated Proliferation (Murine) (Culture Conditions II); format: cell-based, Murine (Balb/c mice); settings: Mus musculus, T-lymphocyte, 72 h; conA 1 ug/ml, 10^5 cells per well, 3 days, MTT
Source text: Assay B: Suppression of Mitogen-Stimulated Proliferation(Murine)(Culture Conditions II.)
It is known that lymphocyte activation can be polyclonally stimulated by plant lectins and other mitogenic substances that induce blast transformation and mitosis. The plant lectin concanavalin A (conA) preferentially induces activation and proliferation of T lymphocytes. Exposure of T cells to conA results in polyclonal T cell activation, and this response can be used to determine the in vitro index of immunomodulatory effects of test compounds on pan-T cell activation. Spleen cells were harvested asceptically from female Balb/c mice, and cells were extruded by compression in phosphate buffered saline (pH 7.0). Cells were pelleted by centrifugation (300×g/5 min) and erythrocytes were lysed by resuspension of the splen cells in a hypotonic solution (5 ml per spleen) containing 0.14M NH4 Cl and 0.017M Tris base, pH 7.2, and incubation for 5 min. An equal volume of freshly prepared medium [lscovels modified Dulbecco's medium containing 2 mM L-glutamine, 5% heat inactivated (56° C./45 min) fetal bovine serum and 40 uM 2-mercaptoethanol] .was added to stop cell lysis. The remaining cells were pelleted, resuspended in medium, filtered through a cotton plug to remove debris, and the leukocytes were then counted. Leukocytes (10^5 cells per 10 ul per well) were incubated at 37° C. in a 95% air/[…] atmosphere in 96 well microtiter plates for 3 days. At the start of culture conA (1 ug/ml, SIGMA Chemical Co., St. Louis, Mo.) alone or in combination with test compound (0.0001-60 uM final) or vehicle control (0.6% DMSO or ethanol). All test compounds were dissolved in 95% ethanol or 100% DMSO, and subsequent dilutions were prepared in media. Inhibition of conA stimulated T cell proliferation was measured using a calorimetric indicator of cell growth and proliferation, MTT [3-(4,5-dimethylthiazol-2-yl)-2 diphenyltetrazolium bromide; 100 ul of a 1 mg/ml solution per well, SIGMA][Mosmann, T., 1988. J. Immunol. Methods 65, 55-63.]Cells were loaded with MTT dye at 37° C. for 4 hours; media supernatants were then aspirated from the cell pellets. MTT loaded cells were solubilized in isopropanol (150 ul per well). Light absorbance was measured at a test wavelength of 570 nm and a reference wavelength of 650 nm using a spectrophotometer. EC50 values for immunosuppressive compounds were estimated by four parameter logistical regression analysis of the optical density data [Delean, A., Munson, P. J. and D. Robard, 1978. Am,. J. Physiol. 235:397.

[2] = system: ConA-stimulated spleen cells (T-cells) from female Balb/c mice; assay: Assay A: Suppression of Mitogen-Stimulated Proliferation (Murine) (Culture Conditions I); format: cell-based, Murine (Balb/c mice); settings: Mus musculus, T-cell, 120 h; ConA 1.0 μg/ml, 10^5 cells/well, 5 days, MTT
Source text: Assay A: Suppression of Mitogen-Stimulated Proliferation (Murine)(Culture Conditions I)
Lymphocyte activation can be polyclonally stimulated by plant lectins and other mitogens that induce blast transformation and mitosis. Certain mitogens like Concanavalin A (ConA), preferentially activate T-lymphocytes. Exposure to ConA results in polyclonal activation of T-cells and can be used as an in vitro index for general immunomodulation of pan T-cell activity. In this assay spleen cells harvested from female Balb/c mice were incubated at 37° C., in 95% air/5% CO2 atmosphere in 96 well microtiter plates (10^5 cells/well) for 5 days with Iscove's modified Dulbecco's medium [25 mM HEPES […] L-glutamine, 5% fetal bovine serum and 2-mercaptoethanol (40 μM)], concanavalin A (ConA) alone (Sigma, St. Louis, Mo.; 1.0 μg/ml) or ConA in the presence of test compounds (0.001-25 μM). Inhibition of ConA-stimulated proliferation was measured by addition of the calorimetric indicator of growth metabolic activity or viability, MTT (3-(4,5-dimethylthiazol-2-yl)-2 diphenyl tetrazolium bromide; (100 μl/well, 1 mg/ml) Sigma) [Mosmann, T., J. of Immunological Methods, 65, 55-63, 1988]. After four hours, plates were centrifuged (1200 rpm) media supernatants aspirated and dye loaded cells were solubilized in isopropanol (150 μl/well). The absorbance was measured on an ELISA plate reader with a test wavelength of 570 nm and a reference of 630 nm. The IC50 values for active immunosuppressant compounds were calculated by four parameter logistic regression analysis of the results [Delean et al, Am. J. Physiol., 235, 397 (1978)].

[3] = system: human peripheral blood mononuclear cells; assay: Assay C: One-Way Mixed Lymphocyte Reaction (Human); format: cell-based; settings: mitomycin-C inactivated Raji stimulator cells, 120 hours, 3H-thymidine incorporation
Source text: Assay C: One-Way Mixed Lymphocyte Reaction (Human)
The mixed lymphocyte reaction (MLR) is an assay that measures T-cell activation and mitosis which occurs when lymphocytes from different major and minor histocompatibility complex (MHC) haplotypes are cocultured. This response is considered a "one-way MLR" when stimulator cells are made unresponsive by inhibition of DNA synthesis (treatment with mitomycin-C or gamma-irradiation) prior to coculture with responder cells. This assay can be used as an indicator of the cellular immunomodulation mechanisms involved in transplant rejection. In this assay, human peripheral blood mononuclear cells(PMNC) were used as the responder cell population and were isolated from normal donor blood as follows: Blood samples were collected in LeucoPREP™ tubes (Becton Dickinson, Lincoln Park, N.J.) and the mononuclear cell preparation was obtained by following the manufacturers procedures. Isolated mononuclear cells were co-incubated at 6×10^4 cells/well with a stimulator cell line at 2×10^4 cells/well in RPMI 1640 medium containing 5% fetal bovine serum and 2-mercaptoethanol (40 μM). The stimulator cell line, Raji, which was derived from a human Burkitt lymphoma (American Type Culture Collection, Rockville Md.) was previously inactivated by mitomycin-C treatment (Sigma, St. Louis Mo., 25 μg/ml, 37° for 30 minutes). After repeated washings of mitomycin-C from the stimulator cell line, cocultures were incubated in 96 well microtiter plates at 37° C., in 95% air/5% CO2 atmosphere for 120 hours in the presence or absence of test compounds (0.1-25 μM). Inhibition of proliferation was measured by reduced incorporation of ^3 H-thymidine (0.5 μCi/well, added during the last 24 hours of the assay). The IC50 values for the immunosuppressant compounds were calculated by four parameter logistic regression analysis of the results [Delean et al, Id.]

[4] = literature, Acta. Pharmacologica Sinica, 11(3), 281-285 (1990); cited from earlier work

CC(C)C(C#N)(CCCN(C)Cc1ccccc1)c1ccc(F)c(F)c1 (racemic) [Example 1, (±)-3,4-difluoro-α-(1-methylethyl)-α-[3-[methyl(phenylmethyl)amino]propyl]benzeneacetonitrile]
IC50 [1]: 2410 nM

CC(C)C(C#N)(CCCN(C)Cc1ccccc1)c1ccc(F)cc1 (racemic) [Example 2, (±)-4-fluoro-α-(1-methylethyl)-α-[3-[methyl (phenylmethyl)amino]propyl]benzeneacetonitrile, monohydrochloride]
IC50 [2]: 2200 nM
IC50 [1]: 5190 nM
IC50 [3]: 7200 nM

CC(C)C(C#N)(CCCN(C)CCc1ccccc1)c1ccc(F)cc1 (racemic) [Example 3, (±)-4-fluoro-α-(1-methylethyl)-α-[3-[methyl(2-phenylethyl)amino]propyl]benzeneacetonitrile, monohydrochloride]
IC50 [2]: 1000 nM
IC50 [1]: 3220 nM
IC50 [3]: 4800 nM

CN(CCCC(C#N)(c1ccc(F)cc1)C1CCCC1)Cc1ccccc1 (racemic) [Example 4, (±)-α-cyclopentyl-4-fluoro-α-[3-(methyl(phenylmethyl)amino]propyl]benzeneacetonitrile, monohydrochioride]
IC50 [2]: 3200 nM
IC50 [1]: 4810 nM
IC50 [3]: 2300 nM

CC(C)C(C#N)(CCCCN(C)Cc1ccccc1)c1ccc(F)cc1 (racemic) [Example 5, (±)-4-fluoro-α-(1-methylethyl)-α-[4-(methyl (phenylmethyl)amino]butyl]benzeneacetonitrile, monohydrochloride]
IC50 [2]: 900 nM
IC50 [1]: 1760 nM
IC50 [3]: 2100 nM

CC(C)C(C#N)(CCCCCN(C)Cc1ccccc1)c1ccc(F)cc1 (racemic) [Example 6, (±)-4-fluoro-α-(1-methylethyl)-α-[5-methyl(phenylmethyl)amino]pentyl]benzeneacetonitrile]
IC50 [2]: 500 nM
IC50 [1]: 930 nM

CC(C)C(C#N)(CCCN(C)Cc1ccccc1)c1ccccc1F (racemic) [Example 8, (±)-2-fluoro-α-(1-methylethyl)-α-[3-[methyl (phenylmethyl)amino]propyl]benzeneacetonitrile, monohydrochloride]
IC50 [2]: 1400 nM
IC50 [1]: 3350 nM
IC50 [3]: 2900 nM

CC(C)C(C#N)(CCCN(C)Cc1ccccc1)c1c(F)cccc1F (racemic) [Example 9, (±)-2,6-difluoro-α-(1-methylethyl)-α-[3-[methyl(phenylmethyl)amino]propyl]benzeneacetonitrile, monohydrochloride]
IC50 [1]: 4150 nM

CC(C)C(C#N)(CCCN(Cc1ccccc1)Cc1ccccc1)c1ccc(F)cc1 (racemic) [Example 10, (±)-α-[3-[bis(phenylmethyl)amino]propyl]-4-fluoro-α-(1-methylethyl)benzeneacetonitrile, monohydrochloride]
IC50 [1]: 13500 nM

COC(=O)C1=C(C)NC(C)=C(C(=O)OCCN(C)Cc2ccccc2)C1c1cccc([N+](=O)[O-])c1 (stereo not shown) [nicardipine]
acute and chronic antiinflammatory effects [4]: dose-dependent acute and chronic antiinflammatory effects

COC(=O)C1=C(C)NC(C)=C(C(=O)OC)C1c1ccccc1[N+](=O)[O-] [nifedipine]
acute and chronic antiinflammatory effects [4]: dose-dependent acute and chronic antiinflammatory effects
